According to PubChem BioAssay (NCI):
Values joined by “and” are separate entries in the source; they are usually repeats but may differ in a detail not shown here. Equal values may be shown once.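 In this assay, cells in 96-well plates receive the compound at five concentrations for 48 hours. Endpoints are linearly interpolated between the surrounding concentrations. The concentration for 50% growth inhibition is given as GI50. TGI: total growth inhibition.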

Tests used:
Experiment in all cases: growth of human tumour cells (NCI), 48 h
[1] = system: SK-MEL-28 melanoma
[2] = system: ACHN renal
[3] = system: UO-31 renal
[4] = system: SW-620 colon
[5] = system: TK-10 renal
[6] = system: COLO 205 colon
[7] = system: CCRF-CEM leukemia
[8] = system: T-47D breast
[9] = system: UACC-257 melanoma
[10] = system: OVCAR-5 ovarian

SMILES | GI50 [1] | TGI [1] | GI50 [2] | TGI [2] | GI50 [3] | TGI [3] [µM] | GI50 [4] | TGI [4] | GI50 [5] | TGI [5] | GI50 [6] | TGI [6] | GI50 [7] | TGI [7] [µM] | GI50 [8] | TGI [8] | GI50 [9] | TGI [9] | GI50 [10] | TGI [10]
O=C(c1ccccc1)C(Br)C(Br)c1cccc([N+](=O)[O-])c1 (centres undefined) | 1.87 µM | 3.64 µM | 1.46 µM | 2.77 µM | 1.68 µM | 3.14 | 0.342 µM | 1.49 µM | 2.81 µM | 8.31 µM | 1.86 µM | 3.46 µM | 0.574 µM | 2.78 | 2.13 µM | 5.65 µM | 1.8 µM | 3.89 µM | 2.46 µM | 5.65 µM
COc1cc(/C=C/C(=O)c2c(C)nc3ccccc3c2/C=C/c2ccc(C)cc2)cc(OC)c1OC | 2.02 µM | 3.91 µM | 1.99 µM | 4.6 µM | 1.37 µM | 2.67 | 3.09 µM | > 100 µM | 5.37 µM | 67 µM | 2.53 µM | 6.09 µM | 2.83 µM | > 100 | 2.49 µM | > 100 µM | 2.71 µM | 7.32 µM | 2.18 µM | 5.38 µM
Cc1cc2[nH]c(=O)c3c4ccccc4cn3c2cc1C | 14.8 µM | 35.1 µM | 10.2 µM | 23.5 µM | 14.6 µM | 28 | 3.83 µM | 33.2 µM | 19.7 µM | 34.2 µM | 15.2 µM | 40 µM | 9.92 µM | 31.2 | 15.4 µM | 50 µM | 20.2 µM | 35.9 µM | 13.8 µM | 27.4 µM
Clc1ccc2nnnn2n1 | 12.3 µM | 63 µM | 5.27 µM | 19.5 µM | 3.52 µM | > 100 | 3.88 µM | 22 µM | 3.5 µM | 23.6 µM | 2.03 µM | 3.81 µM | 3.74 µM | 29.8 | 6.25 µM | 24 µM | 16.1 µM | 56.9 µM | 4.7 µM | 20.5 µM
Oc1[nH]c2c(Br)cccc2c1C1=Nc2ccccc2/C1=N/OCCN1CCCC1 | 1.92 µM | 5.49 µM | 0.414 µM and 0.379 µM | 2.12 µM and 3.8 µM | 0.44 µM | 4.97 | 1.49 µM and 0.542 µM |  | 2.58 µM and 1.8 µM | > 100 µM | 0.524 µM | 4.81 µM | 0.741 µM and 1.12 µM |  | 3.51 µM |  | 2.67 µM |  | 1.21 µM and 1.91 µM | 4.82 µM and 14.7 µM
Cc1ccc2nc(-c3ccccc3)c(N=O)n2c1 |  | > 100 µM |  | > 100 µM |  | > 100 |  | > 100 µM |  | > 100 µM |  | > 100 µM |  | > 100 |  | > 100 µM |  | > 100 µM |  | > 100 µM
CC(C)COCC(CN(Cc1ccccc1)c1ccccc1)N1CCCC1 (centres undefined) | 3.48 µM | 13.8 µM | 4.99 µM | 17 µM | 1.96 µM | 13.1 | 3.54 µM | 15.2 µM | 3.43 µM | 12 µM | 1.53 µM | 3.52 µM | 2.71 µM | 13.7 | 1.74 µM | 6.49 µM | 3.28 µM | 15.3 µM | 3.93 µM | 15.8 µM
COc1ccc(C(=O)/C=C/c2ccc3c(c2)OCO3)c(OCc2ccccc2)c1 |  | > 100 µM |  | > 100 µM |  | > 100 |  | > 100 µM |  | > 100 µM |  | > 100 µM |  | > 26.9 |  | > 100 µM |  | > 100 µM |  | > 100 µM
CC(NCCC(=O)N(CCC(=O)N(CCC(=O)N(CCC(=O)N(CCC(=O)N(CCC(=O)N(CCC(=O)N(CCC(=O)N(CCC(=O)N(CCC(=O)O)[C@H](C)c1ccccc1)[C@H](C)c1ccccc1)[C@H](C)c1ccccc1)[C@H](C)c1ccccc1)[C@H](C)c1ccccc1)[C@H](C)c1ccccc1)[C@H](C)c1ccccc1)[C@H](C)c1ccccc1)[C@H](C)c1ccccc1)c1ccccc1 (some centres undefined) | 1.5 µM | 3.63 µM | 5.05 µM | > 43.9 µM | 3.55 µM | > 75 | 2.91 µM | > 35 µM | 3.38 µM | 23.2 µM | 1.43 µM | 2.83 µM | 1.89 µM | > 19.5 | 3.42 µM | > 75 µM | 1.76 µM | 4.15 µM | > 18.8 µM | > 75 µM
COC(=O)C1=C(C(=O)OC)SC(=C(Cl)C(=S)Nc2ccccc2O)S1 | > 50 µM | > 50 µM | 16.3 µM | > 50 µM | 14.4 µM | 39.2 | 26.4 µM | > 50 µM | 7.05 µM | 23.9 µM | 16.2 µM | > 50 µM | > 50 µM | > 50 | 17 µM | > 50 µM | 12.4 µM | 26.3 µM | 11.6 µM | 31.5 µM
COc1cc(Cl)cc(-c2nn(-c3cccc(NC(=O)Nc4cc(C(F)(F)F)cc(C(F)(F)F)c4)c3)cc2-c2ccncc2)c1 | 1.07 µM | 4.83 µM | 0.401 µM | 12.7 µM | 0.28 µM | 1.92 | 0.422 µM | 2.72 µM | 0.684 µM | 14.6 µM | 0.528 µM | 1.97 µM | 0.312 µM | 1.52 | 0.476 µM | 6.27 µM | 0.686 µM | 2.68 µM | 1.6 µM | 10.1 µM
O=S(=O)(c1cccc2c(Cl)cccc12)N1CCCNCC1 | 10.8 µM | 22.7 µM | 14.4 µM | 27.4 µM | 14.1 µM | 28.5 | 17.9 µM | 31.8 µM | 13 µM | 25.8 µM | 16.4 µM | 35.4 µM | 15.1 µM | 28.4 | 11.7 µM | 29.4 µM | 10.1 µM | 22.8 µM | 11.5 µM | 23.6 µM
CN1C(=O)C(CC(=O)O)NC1=S (centres undefined) |  | > 100 µM |  | > 100 µM |  | > 100 |  | > 100 µM |  | > 100 µM |  | > 100 µM |  | > 100 |  | > 100 µM |  | > 100 µM |  | > 100 µM
O=C(Nc1ccc2[nH]c(=S)sc2c1)Nc1ccccc1F | 42.2 µM | > 100 µM | 37.4 µM | > 100 µM | 4.09 µM | 22.5 | 43.1 µM | > 100 µM | 51.5 µM | > 100 µM | 24.5 µM | 65.4 µM | 26.7 µM | > 100 | 4.47 µM | 33.4 µM | 73.5 µM | > 100 µM | 56.4 µM | > 100 µM
Nc1c([N+](=O)[O-])cc2c3c(cccc13)CC2 |  | > 100 µM |  | > 100 µM |  | > 100 |  | > 100 µM |  | > 100 µM |  | > 100 µM |  | > 100 |  | > 100 µM |  | > 100 µM |  | > 100 µM
O=c1oc2cc(N=Cc3ccc4c(c3)OCO4)ccc2c2ccccc12 |  | > 100 µM |  | > 100 µM |  | > 100 |  | > 100 µM |  | > 100 µM |  | > 100 µM |  | > 100 |  | > 100 µM |  | > 100 µM |  | > 100 µM
O=C1C=CC[C@H](/C=C/c2ccccc2)O1 | 2.76 µM | 15.3 µM | 4.04 µM | 16.6 µM | 3.89 µM | 8.99 | 1.39 µM | 16 µM | 11.5 µM | > 53.2 µM | 2.03 µM | 20.2 µM | 9.5 µM | > 50.2 | 6.29 µM | 37.7 µM | 9.81 µM | 26.9 µM | 1.92 µM | 10.4 µM
COc1cc(NC(=O)CSc2nc3ccc(C)cc3c(=O)n2Cc2ccccc2)cc(OC)c1OC | 7.04 µM | 59.7 µM | 3.49 µM | > 100 µM | 5.97 µM | > 100 | > 100 µM | > 100 µM | 5.58 µM | 92.3 µM | > 100 µM | > 100 µM | > 100 µM | > 100 | 4.01 µM | 66.9 µM | 4.86 µM | > 100 µM | 58 µM | > 100 µM
COc1cc2c(cc1OCCCCCOc1ccc(-n3c(C)nc4ccccc4c3=O)cc1)N=C[C@@H]1CCCN1C2=O | 0.27 µM | 0.853 µM | 0.342 µM | 1.53 µM | 0.336 µM | 1.71 | 0.323 µM | 2.8 µM | 0.32 µM | 0.867 µM | 0.165 µM | 0.37 µM | 0.21 µM | 0.588 | 0.324 µM |  | 0.434 µM | 1.48 µM | 0.281 µM | 0.678 µM
COc1ccccc1N1CCN(CCc2c[nH]c3cc4c(cc23)OCO4)CC1 | 43.9 µM | > 100 µM | 21.3 µM | > 100 µM | 20.3 µM | > 100 | 22 µM | > 100 µM | 27.1 µM | > 100 µM | 15.3 µM | 34.7 µM | 29.8 µM | > 100 | 19.8 µM | 77.3 µM | 26.5 µM | 88.9 µM | 15.5 µM | > 100 µM
CC1(O)CC(c2nc(-c3ccc4ccc(-c5ccccc5)nc4c3)c3c(N)nccn23)C1 (centres undefined) | 12 µM and > 10 µM | 44.3 µM and > 10 µM | 7.44 µM and 7.79 µM | > 100 µM | 3.6 µM and 1.65 µM | > 76.3 | 4.87 µM and 2.36 µM | 34.8 µM and > 10 µM | 12 µM and > 10 µM | 56.3 µM and > 10 µM | 0.346 µM and 0.0989 µM | 14.2 µM and 4.07 µM | 9.89 µM and > 10 µM | > 100 | 3.94 µM and 2.82 µM | 24.1 µM and > 10 µM | 5.68 µM and > 10 µM | 48.2 µM and > 10 µM | 12.1 µM and > 10 µM | 44.7 µM and > 10 µM
Cc1cc(NCc2cc(Nc3ccnc4cc(Cl)ccc34)ccc2F)nc(N2CCN(C)CC2)n1 | 1.7 µM | 3.26 µM | 2.16 µM | 5.38 µM | 1.38 µM | 3.11 | 1.63 µM | 4.23 µM | 2.03 µM | 5.49 µM | 1.72 µM | 3.66 µM | 1.12 µM | 7.6 | 2.1 µM | 6.13 µM | 1.87 µM | 3.68 µM | 2.05 µM | 5.17 µM
CN(C)CC1C(=O)O[C@H]2[C@H]1CC/C(COC(=O)c1cc3ccccc3[nH]1)=C\CC[C@@]1(C)O[C@@H]21 (some centres undefined) | 2.17 µM | 5.24 µM | 0.923 µM | 2.48 µM | 0.872 µM | 2.36 | 1.75 µM | 4.41 µM | 2.04 µM | 3.98 µM | 2.16 µM | 5.5 µM | 0.432 µM | 15.9 | 2.19 µM | 5.54 µM | 1.47 µM | 3.24 µM | 2.37 µM | 6.15 µM
CNCCNc1c2c(c(NCCNC)c3[nH]ccc13)C(=O)c1ccccc1C2=O | 4.18 µM | 11.1 µM | 0.0434 µM | 0.306 µM | 0.201 µM | 0.818 | 0.299 µM | 0.804 µM | 0.183 µM | 0.502 µM | 3.32 µM |  | 0.0148 µM | 0.203 | 11.4 µM | > 27 µM | 1.72 µM | 7.04 µM | 0.536 µM | 1.93 µM
